Data on eight compounds can be found in the NIST ThermoML archive (doi:10.1016/j.fluid.2009.08.017).

± gives the expanded uncertainty stated by the source.

The data set in a line: activity coefficient (dimensionless); of the first substance listed, at infinite dilution; xn = mol fraction of the nth substance listed. The conditions noted are these: 101 kPa, Liquid, Chromatography, x1 = 0.

For `CCCCO` [butan-1-ol] + CCCCCCOCn1cc[n+](COCCCCCC)c1.O=S(=O)([N-]S(=O)(=O)C(F)(F)F)C(F)(F)F, the activity coefficient reads like this: (318.15 K) 1.19 ± 0.08; (328.15 K) 1.1 ± 0.07; (338.15 K) 1.01 ± 0.064; (348.15 K) 0.943 ± 0.059; (358.15 K) 0.877 ± 0.056; (368.15 K) 0.82 ± 0.053.

Regarding `C#CCCC` [1-pentyne] + CCCCCCOCn1cc[n+](C)c1.O=S(=O)([N-]S(=O)(=O)C(F)(F)F)C(F)(F)F, the activity coefficient reads like this: (298.15 K) 1.54 ± 0.1; (308.15 K) 1.56 ± 0.1; (318.15 K) 1.57 ± 0.1; (328.15 K) 1.58 ± 0.1; (338.15 K) 1.59 ± 0.11; (348.15 K) 1.59 ± 0.11. Further, the activity coefficient is 1.6 ± 0.11 (358.15 K) and 1.61 ± 0.11 (368.15 K).

In the case of `CCCCCCCCCC` [decane] + CCCCCCOCn1cc[n+](C)c1.O=S(=O)([N-]S(=O)(=O)C(F)(F)F)C(F)(F)F, the activity coefficient is, setting by setting: (298.15 K) 23.5 ± 1.6; (308.15 K) 21.7 ± 1.5; (318.15 K) 20.2 ± 1.4; (328.15 K) 18.9 ± 1.3; (338.15 K) 17.7 ± 1.2; (348.15 K) 16.7 ± 1.1. Moreover, the activity coefficient is, setting by setting: (358.15 K) 15.8 ± 1.1; (368.15 K) 14.9 ± 1.

In the case of `C#CCCCCCC` [1-octyne] + CCCCCCOCn1cc[n+](C)c1.O=S(=O)([N-]S(=O)(=O)C(F)(F)F)C(F)(F)F, the activity coefficient runs as follows: (298.15 K) 3.15 ± 0.21; (308.15 K) 3.14 ± 0.21; (318.15 K) 3.13 ± 0.21; (328.15 K) 3.13 ± 0.21; (338.15 K) 3.12 ± 0.21; (348.15 K) 3.11 ± 0.21. The activity coefficient (358.15 K) worked out at 3.11 ± 0.21 and the activity coefficient (368.15 K) came to 3.1 ± 0.21.

Regarding `C=CCCCC` [hex-1-ene] + CCCCCCOCn1cc[n+](C)c1.O=S(=O)([N-]S(=O)(=O)C(F)(F)F)C(F)(F)F, the activity coefficient turned out to be 4.89 ± 0.33 (298.15 K); 4.72 ± 0.32 (308.15 K); 4.59 ± 0.31 (318.15 K); 4.46 ± 0.3 (328.15 K); 4.33 ± 0.29 (338.15 K); 4.23 ± 0.29 (348.15 K). The activity coefficient by setting is: (358.15 K) 4.12 ± 0.28; (368.15 K) 4.03 ± 0.27.

Take `C1CCOC1` [tetrahydrofuran] + CCCCCCOCn1cc[n+](C)c1.O=S(=O)([N-]S(=O)(=O)C(F)(F)F)C(F)(F)F: the activity coefficient (298.15 K) came out at 0.424 ± 0.035; the activity coefficient (308.15 K) turned out to be 0.438 ± 0.035; the activity coefficient (318.15 K) was 0.452 ± 0.036; the activity coefficient (328.15 K) stood at 0.466 ± 0.036; the activity coefficient (338.15 K) turned out to be 0.479 ± 0.037; the activity coefficient (348.15 K) is 0.491 ± 0.037. For the same compound, the activity coefficient was 0.504 ± 0.038 (358.15 K) and 0.515 ± 0.038 (368.15 K).

Consider `C1CCCC1` [cyclopentane] + CCCCCCOCn1cc[n+](C)c1.O=S(=O)([N-]S(=O)(=O)C(F)(F)F)C(F)(F)F, for which the activity coefficient is, setting by setting: (298.15 K) 4.19 ± 0.29; (308.15 K) 3.99 ± 0.27; (318.15 K) 3.82 ± 0.26; (328.15 K) 3.66 ± 0.25; (338.15 K) 3.51 ± 0.24; (348.15 K) 3.38 ± 0.23. Further, the activity coefficient by setting is: (358.15 K) 3.27 ± 0.22; (368.15 K) 3.16 ± 0.22.

Take `C=CCCCC` [hex-1-ene] + CCCCCCOCn1cc[n+](COCCCCCC)c1.O=S(=O)([N-]S(=O)(=O)C(F)(F)F)C(F)(F)F: the activity coefficient reads like this: (298.15 K) 2.25 ± 0.15; (308.15 K) 2.2 ± 0.15; (318.15 K) 2.15 ± 0.15; (328.15 K) 2.11 ± 0.14; (338.15 K) 2.07 ± 0.14; (348.15 K) 2.04 ± 0.14. Moreover, the activity coefficient by setting is: (358.15 K) 2.01 ± 0.14; (368.15 K) 1.97 ± 0.13.
